This is an account of results in PubChem BioAssay (NCI).

Structures are written as SMILES. Values joined by “and” are separate entries in the source; they are usually repeats but may differ in a detail not shown here. Equal entries are not always repeated.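 Cultured in 96-well plates, cells were exposed to test compound for 48 hours across five concentrations. Here, GI50 denotes the concentration required for 50% inhibition of growth. The concentration for full growth arrest is given as TGI.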

Test systems include HCC-2998 colon; A549 NSCLC; COLO 205 colon; T-47D breast; MDA-MB-231 breast; NCI/ADR-RES ovarian; SN12C renal; HOP-92 NSCLC; U251 CNS; K-562 leukemia.
Holding throughout (assay): NCI-60 cell line screen, 48 h

In the case of `CN1C(=O)c2ccccc2NC(=O)C12O[C@@H]2c1cccc(O)c1` (stereo partly specified), the TGI with HCC-2998 colon, in the experiment on A549 NSCLC, in the experiment on COLO 205 colon, with T-47D breast, in the experiment with MDA-MB-231 breast and in the experiment with NCI/ADR-RES ovarian was over 100 µM each time. Also, the TGI in the experiment with SN12C renal, in the experiment with HOP-92 NSCLC and in the experiment with U251 CNS was over 100 µM in each case.

Take `O=c1[nH]c(=O)n(C2OC(CO)C(O)C(O)C2O)cc1F` (stereo unspecified): the TGI with HCC-2998 colon, in the experiment on A549 NSCLC, with COLO 205 colon, in the experiment on T-47D breast, in the experiment on MDA-MB-231 breast and with NCI/ADR-RES ovarian was over 100 µM in each case. Also, the TGI in the experiment on SN12C renal, with K-562 leukemia, in the experiment with HOP-92 NSCLC and in the experiment with U251 CNS was over 100 µM in each case.

Consider `C=C[C@H]1C[C@@H]2C[C@@H]3[C@H]4C/C=C\C(=O)NCCCC5NC(=O)C(=C(O)/C=C/[C@@H]4CC(=O)[C@H]3[C@@H]2[C@H]1C)C5=O` (stereo partly specified), for which the GI50 in the experiment on HCC-2998 colon was 1.41 µM; with A549 NSCLC it was 0.62 µM; in the experiment with COLO 205 colon it was 1.78 µM; in the experiment on T-47D breast, 1.65 µM; with MDA-MB-231 breast it was 0.232 µM; in the experiment on NCI/ADR-RES ovarian, 0.192 µM. In addition, the GI50 in the experiment on SN12C renal was 0.182 µM; in the experiment on HOP-92 NSCLC, 0.218 µM; in the experiment with U251 CNS it was 1.61 µM. The TGI with HCC-2998 colon was determined as 2.78 µM; in the experiment on A549 NSCLC it was 1.91 µM; in the experiment on COLO 205 colon, 3.21 µM; with T-47D breast, 3.52 µM; with MDA-MB-231 breast it was 0.537 µM; with NCI/ADR-RES ovarian, 0.365 µM. Besides, the TGI came to 0.342 µM in the experiment on SN12C renal, 0.539 µM in the experiment with HOP-92 NSCLC and 3.07 µM in the experiment on U251 CNS.

As to `O=C1OC(c2ccco2)=N/C1=C\c1cccc([N+](=O)[O-])c1`, the TGI with HCC-2998 colon, in the experiment with A549 NSCLC, in the experiment on COLO 205 colon, in the experiment on T-47D breast, in the experiment on MDA-MB-231 breast and in the experiment on SN12C renal was over 100 µM throughout. The TGI in the experiment with K-562 leukemia, in the experiment on HOP-92 NSCLC and in the experiment with U251 CNS was over 100 µM each time.

With `Cn1c2ccccc2c2c3[nH]c(=O)[nH]c(=O)c3c3c4ccccc4n(C)c3c21`, the GI50 in the experiment on HCC-2998 colon is 8.25 µM; in the experiment with A549 NSCLC it was 2.86 µM; with COLO 205 colon, 2.44 µM; in the experiment on T-47D breast, 2.05 µM; in the experiment with MDA-MB-231 breast, 5.41 µM; in the experiment on NCI/ADR-RES ovarian, 2.89 µM. For the same compound, the GI50 in the experiment on SN12C renal was 4.21 µM; with HOP-92 NSCLC, 3.4 µM; with U251 CNS it was 3.02 µM. The TGI is over 100 µM with HCC-2998 colon; over 100 µM with A549 NSCLC; over 100 µM in the experiment with COLO 205 colon; 27.1 µM with T-47D breast; 31.4 µM with MDA-MB-231 breast; 17 µM in the experiment with NCI/ADR-RES ovarian. Moreover, the TGI with SN12C renal is over 100 µM; in the experiment on HOP-92 NSCLC it was 14.6 µM; in the experiment with U251 CNS, 13 µM.

For `CC(C)(C)c1cc(NC(=O)Cc2ccc(-c3cnc4cc(-c5cnn(CCN6CCOCC6)c5)ccc4n3)cc2)no1`, the TGI is 50 µM and > 100 µM and > 3 µM in the experiment on HCC-2998 colon; 50 µM and > 100 µM and > 3 µM with A549 NSCLC; 50 µM and > 3 µM in the experiment on COLO 205 colon; 50 µM and > 100 µM and > 3 µM in the experiment with T-47D breast; 50 µM and > 100 µM and > 2.85 µM in the experiment with MDA-MB-231 breast; 50 µM and > 100 µM and > 3 µM in the experiment on NCI/ADR-RES ovarian. In addition, the TGI with SN12C renal was 50 µM and > 100 µM and > 3 µM; in the experiment on K-562 leukemia, 50 µM and > 100 µM and > 3 µM; in the experiment on HOP-92 NSCLC it was 2.92 µM and > 3 µM; with U251 CNS it was 50 µM and > 100 µM and > 3 µM. Besides, the GI50 is 0.335 µM and 0.506 µM and 0.108 µM in the experiment with A549 NSCLC; 0.836 µM and 0.0931 µM in the experiment with COLO 205 colon; 0.853 µM and 0.822 µM and 0.107 µM in the experiment with T-47D breast; 0.622 µM and 0.573 µM in the experiment on MDA-MB-231 breast; 1.08 µM and 0.745 µM and 0.117 µM with NCI/ADR-RES ovarian; 0.243 µM and 0.348 µM and 0.0645 µM in the experiment on SN12C renal. Besides, the GI50 in the experiment with K-562 leukemia was 0.216 µM and 0.307 µM and 0.0848 µM; in the experiment on HOP-92 NSCLC, 0.194 µM and 0.0913 µM; with U251 CNS it was 0.337 µM and 0.456 µM and 0.0964 µM.

For the compound `Cc1nc(-c2ccccc2)c(-c2ccccc2)s1`, the TGI with HCC-2998 colon was 25.3 µM; in the experiment with A549 NSCLC, 89 µM; in the experiment on COLO 205 colon it was 38.8 µM; in the experiment with T-47D breast, over 100 µM; in the experiment with MDA-MB-231 breast, 69.6 µM; with NCI/ADR-RES ovarian, 65.4 µM. Further, the TGI in the experiment with SN12C renal is over 100 µM; in the experiment with K-562 leukemia it was 57.2 µM; with HOP-92 NSCLC, 83.6 µM; with U251 CNS it was 29.5 µM.

On to `O=C(O)[C@@H]1CCCCN1Cc1cc2cc3c(cc2c2cc(OCc4ccccc4)ccc12)OCO3`, for which the GI50 was 19.3 µM in the experiment on HCC-2998 colon; 3.74 µM in the experiment on A549 NSCLC; 3.05 µM in the experiment with COLO 205 colon; 2.97 µM with T-47D breast; 1.9 µM with MDA-MB-231 breast; 19.3 µM in the experiment with NCI/ADR-RES ovarian. Besides, the GI50 with SN12C renal is 2 µM; with K-562 leukemia, 36.7 µM; in the experiment on HOP-92 NSCLC, 14.7 µM; with U251 CNS it was 3.8 µM. The TGI with HCC-2998 colon worked out at 33.6 µM; with A549 NSCLC it was 15.1 µM; in the experiment on COLO 205 colon it was 15.8 µM; in the experiment on T-47D breast it was 29.5 µM; in the experiment with MDA-MB-231 breast, 6.21 µM; with NCI/ADR-RES ovarian, 39.6 µM. For the same compound, the TGI with SN12C renal is 7.8 µM; in the experiment on K-562 leukemia, over 100 µM; with HOP-92 NSCLC, 41.5 µM; in the experiment with U251 CNS it was 15.2 µM.

Turning to `Cc1ccc2[nH]c(C(=O)NN3C(=O)C(C)SC34CCCC(C)C4)c(-c3ccccc3)c2c1` (stereo unspecified), the GI50 in the experiment with HCC-2998 colon was 76.6 µM; with A549 NSCLC, 30.9 µM; in the experiment with COLO 205 colon it was 94.1 µM; in the experiment on T-47D breast, over 100 µM; with MDA-MB-231 breast, over 100 µM; with SN12C renal it was 23.5 µM. In addition, the GI50 in the experiment on K-562 leukemia was 35.1 µM; with HOP-92 NSCLC, over 100 µM; with U251 CNS it was 48.8 µM. The TGI in the experiment on HCC-2998 colon, in the experiment with A549 NSCLC, in the experiment with COLO 205 colon, in the experiment with T-47D breast, in the experiment with MDA-MB-231 breast and in the experiment on SN12C renal was over 100 µM each time. In addition, the TGI with K-562 leukemia, in the experiment on HOP-92 NSCLC and with U251 CNS was over 100 µM in each case.
